The values below come from ChEMBL document CHEMBL5727003, “Therapeutic inhibitory compounds” (2019).

Each structure is given as a SMILES string. Where only a bound is given, the exact number is not on record here.

In this assay the target is Plasma kallikrein (Homo sapiens, UniProt P03952). Kind of assay: In Vitro Enzyme Inhibition: A 10 mM solution of the test compound was made in DMSO. This solution was serially diluted 1:5 in DMSO to yield 2000, 400, 80, 16, 3.2, 0.64, 0.128, 0.0256 and 0.00512 μM compound test solutions. A control tube containing only DMSO is included. 16 μL of each compound test solution was combined with 384 μL of assay buffer (50 mM Tris-HCl pH 7.5, 150 mM NaCl, 0.01% Triton X-100) to yield a “4× test compound buffer stock”.Separately, a 40 nM solution of human Plasma Kallikrein (Abcam) and a 93.6 μM solution Pro-Phe-Arg-AMC (Bachem) were made using assay buffer. These solutions are hereby referred to as 4×hPK and 2×PFR-AMC, respectively.60 μL of each 4× test compound buffer stock was combined with 60 μL of 4×hPK to yield 120 μL of “2× test compound buffer stock/2×hPK”. 50 μL was removed from this mixture and placed into duplicate wells on a Microfluor 1Black U-bottom microtiter plate (Thermo Scientific). This plate was incubated for 5 minutes at 37° C. To each well, 50 μL of pre-warmed 2×PFR-AMC was added to start the enzymatic reaction. Cleavage of PFR-AMC was monitored in a Biotek Synergy H4 reader set at 37° C. Readings are taken every 43 seconds for 1 hour. The highest mean velocity over 20 reads (˜15 minutes) is used to calculate the IC50. The IC50 is calculated using the Gen5 (Biotek Instruments).
Chain of Plasma kallikrein (P03952 20-390 limits assumed): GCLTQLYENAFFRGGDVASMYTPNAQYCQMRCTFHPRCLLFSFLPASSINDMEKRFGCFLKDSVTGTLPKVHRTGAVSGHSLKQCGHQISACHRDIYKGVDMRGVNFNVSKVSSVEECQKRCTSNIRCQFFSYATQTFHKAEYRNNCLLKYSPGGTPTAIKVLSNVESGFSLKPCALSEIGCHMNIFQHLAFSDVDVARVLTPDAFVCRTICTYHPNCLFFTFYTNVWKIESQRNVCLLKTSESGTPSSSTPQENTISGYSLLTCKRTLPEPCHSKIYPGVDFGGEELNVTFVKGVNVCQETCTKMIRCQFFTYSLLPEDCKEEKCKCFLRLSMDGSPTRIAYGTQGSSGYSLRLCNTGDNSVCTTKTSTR
Chain of Plasma kallikrein (P03952 391-638 limits assumed): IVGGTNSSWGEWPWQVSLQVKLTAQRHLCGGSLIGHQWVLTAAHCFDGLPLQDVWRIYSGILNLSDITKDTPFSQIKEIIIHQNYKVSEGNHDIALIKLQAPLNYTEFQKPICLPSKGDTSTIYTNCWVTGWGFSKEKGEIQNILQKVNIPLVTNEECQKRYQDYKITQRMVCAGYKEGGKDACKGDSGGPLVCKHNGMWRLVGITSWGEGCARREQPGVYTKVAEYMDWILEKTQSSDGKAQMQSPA

One may read the IC50 as the midpoint of a concentration-inhibition curve. For the molecule `Cc1cc(N)nc(C)c1CNC(=O)c1nn(Cc2ccc3ncc(Cl)cc3c2)nc1C(F)(F)F`, the IC50 is less than 100 nM. The result for `Cc1cc(N)nc(C)c1CNC(=O)c1cn(Cc2ccc3ncc(Cl)cc3c2)c2cccnc12` reads less than 100 nM.

In the case of `Cc1cc(N)nc(C)c1CNC(=O)c1ccn(Cc2ccc3ncc(Cl)cc3c2)n1`, the IC50 was less than 100 nM. The result for `Cc1cc(N)nc(C)c1CNC(=O)c1cn(Cc2ccc3ncc(Cl)cc3c2)c(CO)n1` reads less than 100 nM; that for `Cc1cc(N)nc(C)c1CNC(=O)c1cc(C(F)(F)F)n(Cc2ccc3ncc(Cl)cc3c2)n1`, 1000 to 10000 nM.
